Data: ChEMBL document CHEMBL4507319 (2021)

How the values were obtained:
[1] = target: Cyclin-G-associated kinase (Homo sapiens) (UniProt O14976); conditions: Compound concentration 1000.0 nM
[2] = target: T1, Testis-specific serine/threonine-protein kinase 3 (Homo sapiens) (UniProt Q96PN8); conditions: Compound concentration 1000.0 nM
T1 sequence (whole entry): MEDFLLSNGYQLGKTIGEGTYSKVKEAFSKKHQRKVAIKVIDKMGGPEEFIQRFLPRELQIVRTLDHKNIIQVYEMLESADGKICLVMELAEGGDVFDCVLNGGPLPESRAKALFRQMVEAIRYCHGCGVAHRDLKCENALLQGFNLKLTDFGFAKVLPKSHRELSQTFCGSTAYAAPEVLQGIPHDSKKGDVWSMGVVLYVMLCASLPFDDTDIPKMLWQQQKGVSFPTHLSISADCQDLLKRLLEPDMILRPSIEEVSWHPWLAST

[3] = target: Phosphatidylinositol 4-phosphate 5-kinase type-1 alpha (Homo sapiens) (UniProt Q99755); conditions: Compound concentration 1000.0 nM
[4] = target: RAC-alpha serine/threonine-protein kinase (Homo sapiens) (UniProt P31749); conditions: Compound concentration 1000.0 nM
[5] = target: Cyclin-dependent kinase 9 (Homo sapiens) (UniProt P50750); conditions: Compound concentration 1000.0 nM
[6] = system: Mast/stem cell growth factor receptor Kit (Homo sapiens), P10721 [L576P]; conditions: Compound concentration 1000.0 nM
[7] = target: Atypical kinase COQ8A, mitochondrial (Homo sapiens) (UniProt Q8NI60); conditions: Compound concentration 1000.0 nM
[8] = target: Cyclin-dependent kinase 8 (Homo sapiens) (UniProt P49336); conditions: Compound concentration 1000.0 nM
[9] = target: Tyrosine-protein kinase Blk (Homo sapiens) (UniProt P51451); conditions: Compound concentration 1000.0 nM
[10] = target: Tyrosine-protein kinase receptor UFO (Homo sapiens) (UniProt P30530); conditions: Compound concentration 1000.0 nM
[11] = target: Phosphatidylinositol 4-phosphate 3-kinase C2 domain-containing subunit beta (Homo sapiens) (UniProt O00750); conditions: Compound concentration 1000.0 nM
[12] = system: Tyrosine-protein kinase ABL1 (Homo sapiens), P00519 [H396P]; conditions: Compound concentration 1000.0 nM
[13] = target: Serine/threonine-protein kinase 24 (Homo sapiens, UniProt Q9Y6E0); conditions: Compound concentration 1000.0 nM
[14] = system: Serine/threonine-protein kinase B-raf (Homo sapiens), P15056 [V600E]; conditions: Compound concentration 1000.0 nM
[15] = target: MAP kinase-activated protein kinase 2 (Homo sapiens) (UniProt P49137); conditions: Compound concentration 1000.0 nM
[16] = target: 1-phosphatidylinositol 3-phosphate 5-kinase (Homo sapiens) (UniProt Q9Y2I7); conditions: Compound concentration 1000.0 nM
[17] = system: Phosphatidylinositol 4,5-bisphosphate 3-kinase catalytic subunit alpha isoform (Homo sapiens), P42336 [Q546K]; conditions: Compound concentration 1000.0 nM
[18] = target: Aurora kinase C (Homo sapiens) (UniProt Q9UQB9); conditions: Compound concentration 1000.0 nM
[19] = target: 5-hydroxytryptamine receptor 1B (Homo sapiens) (UniProt P28222); conditions: Compound concentration 10.0 uM
[20] = target: Mitogen-activated protein kinase 10 (Homo sapiens) (UniProt P53779); conditions: Compound concentration 1000.0 nM
[21] = target: Mitogen-activated protein kinase 14 (Homo sapiens) (UniProt Q16539); conditions: Compound concentration 1000.0 nM
[22] = system: Epidermal growth factor receptor (Homo sapiens), P00533 [G719C]; conditions: Compound concentration 1000.0 nM
[23] = target: Dual specificity mitogen-activated protein kinase kinase 5 (Homo sapiens) (UniProt Q13163); conditions: Compound concentration 1000.0 nM
[24] = target: Tyrosine-protein kinase Fyn (Homo sapiens) (UniProt P06241); conditions: Compound concentration 1000.0 nM
[25] = target: Muscarinic acetylcholine receptor M3 (Homo sapiens) (UniProt P20309); conditions: Compound concentration 10.0 uM
[26] = target: Mitogen-activated protein kinase kinase kinase 3 (Homo sapiens) (UniProt Q99759); conditions: Compound concentration 1000.0 nM
[27] = target: 5-hydroxytryptamine receptor 2C (Homo sapiens) (UniProt P28335); conditions: Compound concentration 10.0 uM
[28] = target: Cyclin-dependent kinase-like 2 (Homo sapiens) (UniProt Q92772); conditions: Compound concentration 1000.0 nM
[29] = target: Tyrosine-protein kinase BTK (Homo sapiens) (UniProt Q06187); conditions: Compound concentration 1000.0 nM
[30] = system: Proto-oncogene tyrosine-protein kinase receptor Ret (Homo sapiens), P07949 [V804L]; conditions: Compound concentration 1000.0 nM
[31] = target: Protein-tyrosine kinase 2-beta (Homo sapiens) (UniProt Q14289); conditions: Compound concentration 1000.0 nM
[32] = target: Tyrosine-protein kinase HCK (Homo sapiens) (UniProt P08631); conditions: Compound concentration 1000.0 nM
[33] = system: Receptor-type tyrosine-protein kinase FLT3 (Homo sapiens), P36888 [D835H]; conditions: Compound concentration 1000.0 nM
[34] = target: Tyrosine-protein kinase CSK (Homo sapiens) (UniProt P41240); conditions: Compound concentration 1000.0 nM
[35] = target: Dual specificity protein kinase CLK1 (Homo sapiens) (UniProt P49759); conditions: Compound concentration 1000.0 nM
[36] = target: Serine/threonine-protein kinase pim-1 (Homo sapiens) (UniProt P11309); conditions: Compound concentration 1000.0 nM
[37] = target: Serine/threonine-protein kinase Nek10 (Homo sapiens) (UniProt Q6ZWH5); conditions: Compound concentration 1000.0 nM
[38] = target: Serine/threonine-protein kinase DCLK1 (Homo sapiens) (UniProt O15075); conditions: Compound concentration 1000.0 nM
[39] = target: Mitogen-activated protein kinase kinase kinase 11 (Homo sapiens) (UniProt Q16584); conditions: Compound concentration 1000.0 nM
[40] = system: Mast/stem cell growth factor receptor Kit (Homo sapiens), P10721 [V559D,V654A]; conditions: Compound concentration 1000.0 nM

Chain of Muscarinic acetylcholine receptor M3 (Homo sapiens) (P20309 whole entry, looked up): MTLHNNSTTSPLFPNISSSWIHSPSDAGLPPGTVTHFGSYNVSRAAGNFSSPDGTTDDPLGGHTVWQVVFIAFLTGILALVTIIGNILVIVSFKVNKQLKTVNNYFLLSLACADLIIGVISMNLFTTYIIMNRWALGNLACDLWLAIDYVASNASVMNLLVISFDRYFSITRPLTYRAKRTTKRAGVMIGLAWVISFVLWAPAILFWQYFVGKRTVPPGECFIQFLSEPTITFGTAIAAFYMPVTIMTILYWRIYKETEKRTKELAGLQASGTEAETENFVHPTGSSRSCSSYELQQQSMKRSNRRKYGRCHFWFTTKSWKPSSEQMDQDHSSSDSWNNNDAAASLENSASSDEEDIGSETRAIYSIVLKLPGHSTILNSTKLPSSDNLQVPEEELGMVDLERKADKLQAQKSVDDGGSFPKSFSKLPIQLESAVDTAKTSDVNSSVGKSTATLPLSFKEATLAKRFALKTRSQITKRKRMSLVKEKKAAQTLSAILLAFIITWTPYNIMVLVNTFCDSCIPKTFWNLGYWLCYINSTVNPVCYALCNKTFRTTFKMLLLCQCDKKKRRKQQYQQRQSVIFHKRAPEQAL
Chain of Serine/threonine-protein kinase pim-1 (Homo sapiens) (P11309 whole entry, looked up): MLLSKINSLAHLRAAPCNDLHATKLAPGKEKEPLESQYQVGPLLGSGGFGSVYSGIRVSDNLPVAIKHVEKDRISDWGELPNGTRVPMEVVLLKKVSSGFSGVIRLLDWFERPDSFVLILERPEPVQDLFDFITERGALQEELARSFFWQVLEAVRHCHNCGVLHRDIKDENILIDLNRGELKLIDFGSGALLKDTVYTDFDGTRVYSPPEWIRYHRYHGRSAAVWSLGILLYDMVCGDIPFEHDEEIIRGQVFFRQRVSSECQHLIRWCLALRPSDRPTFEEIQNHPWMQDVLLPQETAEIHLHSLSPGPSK
Chain of Mitogen-activated protein kinase 10 (Homo sapiens) (P53779 whole entry): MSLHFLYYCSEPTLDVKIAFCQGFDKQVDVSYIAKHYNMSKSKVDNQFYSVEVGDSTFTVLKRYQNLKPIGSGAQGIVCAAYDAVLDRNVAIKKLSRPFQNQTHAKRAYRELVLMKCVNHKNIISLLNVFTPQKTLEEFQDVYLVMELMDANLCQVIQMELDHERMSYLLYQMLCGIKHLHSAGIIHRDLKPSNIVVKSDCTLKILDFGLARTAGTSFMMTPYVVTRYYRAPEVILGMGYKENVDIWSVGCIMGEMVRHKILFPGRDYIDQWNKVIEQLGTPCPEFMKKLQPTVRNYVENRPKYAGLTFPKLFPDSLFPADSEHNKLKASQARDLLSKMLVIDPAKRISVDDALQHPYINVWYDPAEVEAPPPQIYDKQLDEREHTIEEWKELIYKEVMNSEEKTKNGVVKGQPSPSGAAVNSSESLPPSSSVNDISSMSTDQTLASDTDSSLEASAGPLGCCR
Chain of Serine/threonine-protein kinase Nek10 (Homo sapiens) (Q6ZWH5 whole entry): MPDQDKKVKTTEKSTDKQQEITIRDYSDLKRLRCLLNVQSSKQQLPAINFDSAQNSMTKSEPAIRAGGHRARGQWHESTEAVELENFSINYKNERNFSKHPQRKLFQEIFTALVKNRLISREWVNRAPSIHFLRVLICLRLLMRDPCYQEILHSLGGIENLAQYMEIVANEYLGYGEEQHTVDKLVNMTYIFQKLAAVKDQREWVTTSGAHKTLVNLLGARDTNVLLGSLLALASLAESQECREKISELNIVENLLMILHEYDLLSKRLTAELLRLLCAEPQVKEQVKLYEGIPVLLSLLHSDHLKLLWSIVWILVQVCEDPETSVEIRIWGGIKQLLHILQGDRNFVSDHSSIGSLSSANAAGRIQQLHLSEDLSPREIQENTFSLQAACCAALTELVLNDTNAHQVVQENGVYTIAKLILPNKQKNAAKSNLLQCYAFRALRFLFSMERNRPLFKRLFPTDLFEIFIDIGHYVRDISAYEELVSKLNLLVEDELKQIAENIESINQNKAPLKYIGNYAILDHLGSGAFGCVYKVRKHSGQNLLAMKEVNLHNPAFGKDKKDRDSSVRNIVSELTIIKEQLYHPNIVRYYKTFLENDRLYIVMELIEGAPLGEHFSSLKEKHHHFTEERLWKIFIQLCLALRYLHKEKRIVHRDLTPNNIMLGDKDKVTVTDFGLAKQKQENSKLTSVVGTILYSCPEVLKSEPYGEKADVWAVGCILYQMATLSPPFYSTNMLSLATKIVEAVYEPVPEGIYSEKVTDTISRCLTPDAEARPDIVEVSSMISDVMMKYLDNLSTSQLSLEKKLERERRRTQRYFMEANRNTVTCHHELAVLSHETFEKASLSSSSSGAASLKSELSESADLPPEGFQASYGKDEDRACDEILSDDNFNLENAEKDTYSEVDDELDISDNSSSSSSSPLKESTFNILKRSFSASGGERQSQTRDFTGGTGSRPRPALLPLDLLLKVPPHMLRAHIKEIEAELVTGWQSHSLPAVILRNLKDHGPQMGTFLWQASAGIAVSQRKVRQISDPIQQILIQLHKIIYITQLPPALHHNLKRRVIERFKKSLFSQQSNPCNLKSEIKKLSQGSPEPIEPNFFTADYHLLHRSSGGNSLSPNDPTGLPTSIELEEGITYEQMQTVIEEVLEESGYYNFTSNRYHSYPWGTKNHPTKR
Chain of Atypical kinase COQ8A, mitochondrial (Homo sapiens) (Q8NI60 163-647 limits assumed): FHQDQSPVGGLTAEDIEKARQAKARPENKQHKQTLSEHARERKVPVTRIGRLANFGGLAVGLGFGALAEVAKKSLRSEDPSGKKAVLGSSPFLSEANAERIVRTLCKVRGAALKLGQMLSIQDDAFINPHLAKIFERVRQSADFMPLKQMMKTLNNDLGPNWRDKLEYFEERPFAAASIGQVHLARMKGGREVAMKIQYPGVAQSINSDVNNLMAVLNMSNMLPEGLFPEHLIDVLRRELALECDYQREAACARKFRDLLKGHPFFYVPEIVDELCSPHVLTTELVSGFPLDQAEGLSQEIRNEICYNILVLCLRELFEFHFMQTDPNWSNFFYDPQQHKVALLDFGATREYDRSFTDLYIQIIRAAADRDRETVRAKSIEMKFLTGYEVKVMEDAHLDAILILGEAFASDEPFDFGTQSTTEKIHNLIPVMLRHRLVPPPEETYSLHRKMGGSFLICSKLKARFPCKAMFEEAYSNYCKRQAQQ
Chain of Phosphatidylinositol 4-phosphate 5-kinase type-1 alpha (Homo sapiens) (Q99755 whole entry): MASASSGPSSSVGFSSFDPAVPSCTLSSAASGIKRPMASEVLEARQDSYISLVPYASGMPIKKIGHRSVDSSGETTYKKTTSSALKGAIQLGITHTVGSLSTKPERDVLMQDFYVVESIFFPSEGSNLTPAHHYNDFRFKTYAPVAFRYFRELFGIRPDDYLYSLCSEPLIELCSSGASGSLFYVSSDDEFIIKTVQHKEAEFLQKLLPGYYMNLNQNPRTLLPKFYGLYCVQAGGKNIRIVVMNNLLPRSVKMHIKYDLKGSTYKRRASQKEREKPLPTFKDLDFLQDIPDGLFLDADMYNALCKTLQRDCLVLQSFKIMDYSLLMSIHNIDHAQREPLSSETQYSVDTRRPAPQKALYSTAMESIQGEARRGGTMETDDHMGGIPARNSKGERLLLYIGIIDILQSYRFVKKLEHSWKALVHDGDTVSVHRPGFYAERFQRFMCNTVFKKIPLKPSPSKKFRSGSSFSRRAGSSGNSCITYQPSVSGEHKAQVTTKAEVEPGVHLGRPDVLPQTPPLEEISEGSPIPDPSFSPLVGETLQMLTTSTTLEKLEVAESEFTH
Chain of Mast/stem cell growth factor receptor Kit (Homo sapiens), P10721 [L576P] (P10721 whole entry L576P): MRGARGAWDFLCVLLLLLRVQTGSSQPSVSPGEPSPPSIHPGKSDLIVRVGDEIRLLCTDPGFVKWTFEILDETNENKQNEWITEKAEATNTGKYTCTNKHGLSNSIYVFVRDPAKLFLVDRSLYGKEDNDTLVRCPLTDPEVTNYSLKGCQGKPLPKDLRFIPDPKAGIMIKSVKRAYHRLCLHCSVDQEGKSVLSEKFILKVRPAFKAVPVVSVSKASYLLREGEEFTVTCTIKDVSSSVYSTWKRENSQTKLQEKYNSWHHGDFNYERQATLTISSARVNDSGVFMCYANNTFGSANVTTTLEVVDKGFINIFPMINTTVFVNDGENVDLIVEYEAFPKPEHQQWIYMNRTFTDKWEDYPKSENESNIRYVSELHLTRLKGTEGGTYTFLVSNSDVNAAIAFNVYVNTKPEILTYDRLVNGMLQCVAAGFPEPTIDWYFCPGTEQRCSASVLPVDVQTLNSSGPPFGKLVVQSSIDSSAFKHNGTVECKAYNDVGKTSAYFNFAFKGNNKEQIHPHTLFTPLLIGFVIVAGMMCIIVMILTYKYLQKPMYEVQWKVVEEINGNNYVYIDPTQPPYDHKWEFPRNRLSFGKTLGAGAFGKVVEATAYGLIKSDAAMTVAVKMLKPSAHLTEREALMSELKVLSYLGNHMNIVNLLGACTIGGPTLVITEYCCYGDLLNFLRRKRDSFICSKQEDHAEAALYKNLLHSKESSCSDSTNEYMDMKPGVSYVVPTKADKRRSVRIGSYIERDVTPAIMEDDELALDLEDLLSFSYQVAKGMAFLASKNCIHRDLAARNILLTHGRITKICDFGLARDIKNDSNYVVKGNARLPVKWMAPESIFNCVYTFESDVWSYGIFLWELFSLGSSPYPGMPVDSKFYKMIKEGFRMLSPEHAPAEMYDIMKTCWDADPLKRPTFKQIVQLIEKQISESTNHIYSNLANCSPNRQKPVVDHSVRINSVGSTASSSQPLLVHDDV
Chain of MAP kinase-activated protein kinase 2 (Homo sapiens) (P49137 whole entry, looked up): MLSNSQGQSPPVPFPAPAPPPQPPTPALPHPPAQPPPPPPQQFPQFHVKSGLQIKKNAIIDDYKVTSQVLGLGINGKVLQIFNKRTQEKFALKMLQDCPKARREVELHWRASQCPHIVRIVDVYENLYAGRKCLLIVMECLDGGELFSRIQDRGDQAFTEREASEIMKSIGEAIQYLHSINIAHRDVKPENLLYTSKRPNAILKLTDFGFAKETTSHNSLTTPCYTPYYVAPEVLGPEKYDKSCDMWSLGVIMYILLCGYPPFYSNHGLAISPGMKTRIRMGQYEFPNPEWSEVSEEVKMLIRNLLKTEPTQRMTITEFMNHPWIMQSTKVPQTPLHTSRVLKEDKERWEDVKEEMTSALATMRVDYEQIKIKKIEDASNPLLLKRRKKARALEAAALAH

SMILES | residual activity [1] [%] | residual activity [2] [%] | residual activity [3] [%] | residual activity [4] [%] | residual activity [5] [%] | residual activity [6] [%] | residual activity [7] [%] | residual activity [8] [%] | residual activity [9] [%] | residual activity [10] [%] | residual activity [11] [%] | residual activity [12] [%] | residual activity [13] [%] | residual activity [14] [%] | residual activity [15] [%] | residual activity [16] [%] | residual activity [17] [%] | residual activity [18] [%] | inhibition [19] [%] | residual activity [20] [%] | other results
CCc1ccccc1C(=O)Nc1n[nH]c2c(C)c(F)c(C3C(C#N)=C(C)N(C)C(C)=C3C#N)cc12 [BAY-3827] | 82 | 100 | 100 | 75 | 94 | 91 | 84 | 71 | 100 | 100 | 100 | 97 | 90 | 100 | 100 | 100 | 39 | 29 | 9.48 | 92 | residual activity [21]: 100%; residual activity [22]: 55%; residual activity [23]: 100%; residual activity [24]: 100%; inhibition [25]: 22.5%; residual activity [26]: 100%; inhibition [27]: 20%; residual activity [28]: 94%; residual activity [29]: 99%; residual activity [30]: 25%; residual activity [31]: 92%; residual activity [32]: 100%; residual activity [33]: 16%; residual activity [34]: 98%; residual activity [35]: 84%; residual activity [36]: 100%; residual activity [37]: 100%; residual activity [38]: 87%; residual activity [39]: 88%; residual activity [40]: 100%
CC1=C(C#N)C(c2ccc3c(c2)c(NC(=O)c2ccccc2C)nn3C)C(C#N)=C(C)N1 [BAY-974] | 100 | 80 | 100 | 94 | 100 | 100 | 100 | 97 | 82 | 100 | 76 | 82 | 100 | 62 | 84 | 87 | 87 | 97 | 4.12 | 100 | residual activity [21]: 88%; residual activity [22]: 83%; residual activity [23]: 79%; residual activity [24]: 100%; inhibition [25]: 9.49%; residual activity [26]: 77%; inhibition [27]: 22.5%; residual activity [28]: 100%; residual activity [29]: 85%; residual activity [30]: 100%; residual activity [31]: 83%; residual activity [32]: 66%; residual activity [33]: 99%; residual activity [34]: 85%; residual activity [35]: 87%; residual activity [36]: 100%; residual activity [37]: 90%; residual activity [38]: 79%; residual activity [39]: 96%; residual activity [40]: 99%
